This note sets out measurements from EP0366451A2, “The use of oxidized polyamines, especially NN'-Bis-(3-propionaldehyde)-1-4-diaminobutane (sperminedialdehyde) as immunosuppressive agents” (ORTHO PHARMACEUTICAL CORPORATION, priority 1988, dated 1990).

The subject of data set [1] is splenic T cell. As to the kind of experiment: Concanavalin A-stimulated splenic T cell proliferation ([3H]-thymidine incorporation). Type of data set: cell-based, Mouse. As to the method:
Splenic cells were treated with various concentrations of SDA or an analogue for 30 min. at 37°C. Cells were washed and cultured in the presence of Concanavalin A for 3 days. [³H] Thymidine 0.1µCi/well was added and cells were harvested after 18-24 hrs.
Mouse spleen cells were cultured for 3 days in flat bottom microtiter relates at 10⁵ cells per well in the presence of […] of Con A. 3H-thymidine (0.1 microcurie/well) was added for the last 4-6 hours of the culture period. Cells were harvested as described above.
For [³H]-thymidine incorporation, drug or vehicle treated bone marrow or spleen cells were plated in RPMI-1640, containing 10% fetal bovine serum, 10 µM β-mercaptoethanol, 25 mM HEPES and 2 mM glutamine. Con-A (4 µg/ml and […]) was used as mitogens for bone marrow and spleen cells. Three days later, [³H]-thymidine (0.2 µCi/well) was added and cells were harvested after 12-18 hrs. L1210/CPA and L1210/0 cells (0.1 - 1 x 10⁵ cells/well were plated in RPMI-1640 containing 10% horse serum. [³H]-thymidine was added after 24 hrs and cells were filtered on GF/B filter paper for scintillation counting.
(Dividing cells build labelled thymidine or BrdU into new DNA.)

In data set [2] the target is Ornithine decarboxylase (Mus musculus, UniProt P00860). Kind of data set: Ornithine decarboxylase inhibition. Type of data set: biochemical. To be noted: Figure 10.
Source text: The figure illustrates the comparative profile of the inhibition of key regulatory enzymes of polyamine synthesis by SDA, its analogue, butyl dialdehyde (BDA), difluoromethyl orinithine (DFMO) and methyl glyoxal bis (guanylhydrazone) (MGBG).
Data set [3] addresses T1, S-Adenosylmethionine Decarboxylase (AdoMet DC) (Mus musculus, UniProt P0DMN7).
T1 construct: endogenous in cells; host or cells: murine leukemic L1210 cells (supernatant)
T1 sequence (P0DMN7 68-334 limits assumed): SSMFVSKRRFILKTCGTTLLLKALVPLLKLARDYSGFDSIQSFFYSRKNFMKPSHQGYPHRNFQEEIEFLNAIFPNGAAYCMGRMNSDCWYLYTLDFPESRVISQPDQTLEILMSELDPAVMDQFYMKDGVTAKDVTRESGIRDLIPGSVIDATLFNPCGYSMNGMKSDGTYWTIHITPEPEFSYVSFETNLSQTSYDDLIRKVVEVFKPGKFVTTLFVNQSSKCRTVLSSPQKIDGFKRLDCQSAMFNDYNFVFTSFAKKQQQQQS
T1 sequence (P0DMN7 1-67 limits assumed): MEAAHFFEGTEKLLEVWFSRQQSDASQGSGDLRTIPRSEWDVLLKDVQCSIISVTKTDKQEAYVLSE
As to the kind of experiment: AdoMet DC inhibition in L1210 cell supernatants ([14C]CO2 release). In kind it is biochemical, Murine. As for the experimental part: Murine leukemic L1210 cell supernatants were incubated with different concentrations of SDA or butyl dialdehyde, and AdoMet DC activity was estimated by monitoring the release of [¹⁴C] CO₂. Inhibition curves for both drugs were superimposable with IC₅₀ values of 0.12-0.13 x 10⁻³ M.

In data set [4] the test system is (Lewis x BN) F1 rats. Kind of data set: Graft vs. host reaction in rat (popliteal lymph node study). Type of data set: in vivo. As to the method: (LewXBN) rats were injected i.v. daily for 8 days with different doses of spermine dialdehyde. On day 2, BN rat spleen cells were injected subcutaneously into the left foot pads of the (LewxBN)F1 rats. These rats were sacrificed in 7 days and weights of both left and right popliteal lymph nodes were removed. The difference in weight is plotted as a function of spermine dialdehyde concentrations used.
Graft vs. host reaction in rats was measured by popliteal lymph node enlargement induced by reinjection of parental spleen cells into F1 recipients. (Lewis x BN) F1 rats were divided into groups of 10 and given daily IV injections of different doses of the test compound (spermine dialdehyde) or control preparation. Two days after the first injection, they received 9 x 10⁶ spleen cells from a parental Lewis strain (0.3 ml of a […] cell/ml preparation was injected under the skin of the ventral surface of each of the recipient's right hind foot). Injection of test compound and control article continued for 6 more days. On the seventh day, rats were sacrificed by CO₂ treatment. Both left and right politeal lymph nodes were removed and cleaned of any adhering tissue. The extent of enlargement was measured by weighing both left and right lymph nodes and differences between the two were calculated.
Graft vs. host reaction was generated in the form of popliteal lymph node in F1 recipients by subcutaneous injection of parental spleen cells. Spermine aldehyde was administered intravenously starting 2 days before parental spleen cell injection and continued until the day of lymph node measurement. Increase in popliteal lymph node swelling was scored by difference in weight between test (left) and control (right) lymph node. […] This GVH reaction is a typical manifestation of MHC class II reaction involving allogenic T lymphocytes.

The subject of data set [5] is Swiss Webster mice. As to the kind of experiment: Acute toxicity, intraperitoneal. Type of data set: in vivo. As to the method: Two pairs of Swiss Webster mice were injected intraperitoneally at 200 mg and 400 mg/kg respectively and observed for toxic effects. Control groups were injected with control preparation. Two weeks after dosing, animals were necropsied and organs were examined for abnormalities.
Two pairs of Swiss Webster mice were injected intraperitoneally at 200 mg and 400 mg/kg for toxic effects.

Data set [6] deals with ALDH. Kind of data set: ALDH assay in the mitochondrial fraction of L1210/CPA or mouse liver. To be noted: SDA up to 2.5 mM. Type of data set: biochemical. As for the experimental part: Cultured murine leukemic cells and livers (excised from mice immediately after cervical dislocation) were homogenized in 3 volumes of ice-cold 1.15% KCl and 1 mM EDTA. The homogenate was centrifuged at 100,000 g for 45 min and the resulting supernatant was used to measure cytosolic ALDH activity. For particulate ALDH assay, the pellet (and homogenate for total ALDH) was resuspended in homogenizing buffer and treated with 0.25% Triton X-100 for 30 min at 4°C. The solubilized preparations were centrifuged at 48,000 g for 30 min and the supernatants were drawn off for ALDH determinations.
ALDH activity was measured by monitoring the reduction of NAD or NADp for 5-6 min at […] at 37°C in DU70 spectrophotometer (Beckman). The assay mixture contained 50 mM potassium phosphate buffer, pH 7.4, 2.0 mM NAD (or NADP) and 1.0 mM EDTA. The reaction was started by adding the substrate (SDA or other aldehyde) to the prewarmed (5 min at 37°C) assay mixture containing enzyme preparation. Pyrazole (0.1 mM) was added particularly for liver enzyme, to inhibit alcohol dehydrogenase. The apparent Km and maximum velocity (Vmax) values were calculated using a Lineweaver-Burk plot based on the estimation of the slope by regression analysis. Enzyme activity was expressed as mU (nmoles/min) per mg of protein. Protein contents were determined by the Bradford method, using bovine serum albumin as the standard.

Bounds are passed on as bounds.

Ornithine decarboxylase, sequence (P00860 whole entry): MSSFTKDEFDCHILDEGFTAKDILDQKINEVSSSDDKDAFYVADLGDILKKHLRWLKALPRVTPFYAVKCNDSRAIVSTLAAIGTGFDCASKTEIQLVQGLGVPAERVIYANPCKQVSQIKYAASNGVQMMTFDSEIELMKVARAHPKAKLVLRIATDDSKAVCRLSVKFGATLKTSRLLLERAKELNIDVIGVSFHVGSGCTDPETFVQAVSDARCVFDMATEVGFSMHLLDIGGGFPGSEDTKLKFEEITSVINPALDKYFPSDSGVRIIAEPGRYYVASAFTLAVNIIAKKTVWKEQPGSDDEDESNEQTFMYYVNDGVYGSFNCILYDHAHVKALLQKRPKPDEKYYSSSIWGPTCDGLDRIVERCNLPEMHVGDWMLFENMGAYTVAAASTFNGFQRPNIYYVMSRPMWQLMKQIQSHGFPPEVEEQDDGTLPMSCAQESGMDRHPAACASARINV

As to `O=CCCNCCCCNCCC=O` [SDA, NN′-Bis-(3-propionaldehyde)-1-4-diaminobutane], the “susceptibility of spleen cells to suppression compared with bone marrow cells” value in data set [1] (1 hour incubation, Figure 2) is on record as “much more susceptible to suppression”. Also, the “effect of addition of DEAB on the potency of SDA” value in data set [1] (DEAB (20 µM)) is reported as “no significant effect”. For the same compound, the IC50 was 700 nM in data set [1] (Mus musculus, T-cell, cells treated 30 min at 37°C, washed, cultured with Concanavalin A for 3 days, Figure 8, read-out: IC₅₀) and 120 to 130 µM in data set [3] (Figure 9, inhibition curves superimposable, read-out: IC₅₀ values). Moreover, the IC100 in data set [1] (Mus musculus, T-cell, read-out: SDA treatment that abolished Con A-induced murine spleen cell proliferation) lay in the range of 8 to 12 µM. The “inhibition of ODC (in words)” value in data set [2] is “inhibited both of the key enzymes”. In data set [3] (Fig. 9 and Figure 10), the “inhibition of AdoMet DC (in words)” value is on record as “inhibited both of the key enzymes”. Besides, the ED (maximum) in data set [4] (Rattus norvegicus, iv, Figure 4, read-out: dose required to achieve maximum suppression of GVH reaction in vivo) stood at 5 mg/kg. For the same compound, the minimal effective dose in data set [4] (Rattus norvegicus, intravenously or subcutaneously, read-out: dose effective to suppress graft vs. host reactions) is 5 to 10 mg/kg. Further, in data set [4] (intravenous, daily, Figure 4), the “GVH reaction (popliteal lymph node swelling)” value is “significantly suppressed the GVH reaction”. Also, in data set [5] (200 mg and 400 mg/kg intraperitoneally), the “acute signs (squinting and writhing)” value was “acutely irritating”. Further, the toxic effects entry is listed as “no other toxic effect” in data set [5] (200 mg/kg intraperitoneally) and “abdominal or whole body edema for five days” in data set [5] (400 mg/kg intraperitoneally). Besides, the necropsy findings result in data set [5] (400 mg/kg, 14 days after injection) was “a mildly distended abdomen and scab formation at the injection site”. Also, the “lethal dose (not lethal up to)” value in data set [5] (mouse, in vivo, ip) is given as > 400 mg/kg. For the same compound, the “ALDH activity in the mitochondrial fraction” value in data set [6] is on record as “could not be measured”.
